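Grown in 96-well plates, cells were treated for 48 hours with each compound at five concentrations. Insufficient inhibition: endpoint recorded as highest concentration tested. Definition used: TGI = concentration required for complete inhibition of growth.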
Experiments:
Test in all cases: NCI anticancer screen, dose series, 48 h
CCRF-CEM leukemia = test system: CCRF-CEM leukemia
IGROV1 ovarian = test system: IGROV1 ovarian
UO-31 renal = test system: UO-31 renal
MDA-MB-231 breast = test system: MDA-MB-231 breast
NCI-H226 lung = test system: NCI-H226 lung
RXF 393 renal = test system: RXF 393 renal
HCT-116 colon = test system: HCT-116 colon
MDA-MB-435 = test system: MDA-MB-435
NCI-H23 lung = test system: NCI-H23 lung
NCI-H522 lung = test system: NCI-H522 lung

| SMILES | TGI (CCRF-CEM leukemia) [µM] | TGI (IGROV1 ovarian) [µM] | TGI (UO-31 renal) [µM] | TGI (MDA-MB-231 breast) [µM] | TGI (NCI-H226 lung) [µM] | TGI (RXF 393 renal) [µM] | TGI (HCT-116 colon) [µM] | TGI (MDA-MB-435) [µM] | TGI (NCI-H23 lung) [µM] | TGI (NCI-H522 lung) [µM] |
| --- | --- | --- | --- | --- | --- | --- | --- | --- | --- | --- |
| CC1CC[C@@]2(OC1)O[C@H]1[C@H](O)[C@H]3[C@@H]4CC[C@H]5C[C@@H](OC6OC(CO)C(OC7OC(CO)C(O)C(OC8OCC(O)C(O)C8O)C7OC7OC(CO)C(O)C(O)C7OC7OC(CO)C(O)C(O)C7O)C(O)C6O)[C@H](O)C[C@]5(C)[C@H]4CC[C@]3(C)[C@H]1[C@@H]2C (stereo not given in full) | 2.51 | > 10 | > 10 | 5.85 | > 10 | > 10 | > 10 | > 10 | > 10 | 6.87 |
| N#CC1(C#N)C(C#N)(C#N)C1(C#N)C(N)=O | > 100 | > 100 | > 100 | > 100 | > 100 | > 100 | > 100 | > 100 | > 100 | > 100 |
| Nc1cc2c(c3ccccc13)C(CCl)CN2C(=O)c1cc2cc(NC(=O)Nc3ccc4[nH]c(C(=O)N5CC(CCl)c6c5cc(N)c5ccccc65)cc4c3)ccc2[nH]1 (stereo not given) | 2.98 | 1.4 | 1.4 | 2.16 | 1.81 | 0.248 | 1.13 | 4.33 | 1.02 | 1.42 |
| COC(=O)c1ccccc1C1CN=NC12Cc1c(ccc3c1CCC3)C2=O (stereo not given) | > 100 | > 100 | > 100 | > 100 | > 100 | > 100 | > 100 | 56.2 | > 100 | 43.7 |
| NNC(=O)Nc1nc2ccc(NN)cc2[nH]1 | 41.7 | > 100 | > 100 | > 100 | 89.8 | 97.2 | > 100 | 54 | > 100 | 92.6 |
| COc1cccc(N=N/C(=N/NC(=O)c2ccc(C)cc2)c2ccc(N(CCC#N)CCC#N)cc2OC)c1 | > 100 | > 100 | > 100 | > 100 | > 100 | > 100 | > 100 | > 100 | > 100 | > 100 |

Source: PubChem BioAssay (NCI)
